{"source": "patent US6953786B2", "about": "“Compositions comprising plant-derived polyphenolic compounds and inhibitors of reactive oxygen species and methods of using thereof” (The Regents of the University of California, priority 2002, dated 2005)", "key": {"Akt/PKB": {"test_system": "Akt/PKB", "test": "Akt/PKB phosphorylation (Western blot)", "type": "cell-based, human", "conditions": "Mia PACA-2, 72 hours, with serum; genistein 100 μM, LY294002 50 μM", "description": "To determine whether phosphatidylinositol 3-kinase (PI 3-kinase) and Akt/PKB mediate the effects of serum on NF-κB activation and that the effects of polyphenolic compounds on NF-κB activation are due to an ability to inhibit PI 3-kinase, the following assays were conducted. Specifically, to determine the effects of serum, LY294002, a PI 3-kinase inhibitor, and genistein on Akt/PKB phosphorylation, Mia PACA-2 cells were cultured for 72 hours in the absence or presence of serum with or without 100 μM genistein (GN) or 50 μM LY294002. Western blots were performed on whole cell lysates as described above except that specific antibodies against phosphorylated and total Akt/PKB were used (Akt/PKB is Anti-pS473 AktpAB from Promega, Madison Wis. and total Akt is Akt ½ from Santa Cruz, Santa Cruz, Calif.). The membranes were then stripped and re-probed with an antibody against total Akt ."}, "[1]": {"test_system": "BSp73AS and Mia PACA-2 cells", "test": "Caspase-3 activity and annexin staining with MG-132 (FIG. 14C)", "type": "cell-based", "conditions": "polyphenols 100 μM, MG-132 20 μM"}, "caspase-3 [2]": {"test_system": "caspase-3", "test": "Caspase-3 processing (Western blot)", "type": "cell-based, human", "description": "(§1) In order to determine the effect polyphenolic compounds have on caspase-3 activity, the following assay was conducted. BSp73AS cells were culture in the absence of serum or growth factors for 24 hours in 0, 10, 20, and 50 μM of trans-resveratrol and Mia PACA-2 -cells were cultured for 72 hours in the presences of 0, 10, 20, and 50 μM of tran-resveratrol. Cell lysates were then prepared and 50 μg protein aliquots were loaded per lane and blotted with rabbit polyclonal antibody against caspase-3 (Santa Cruz Biotechnology, Santa Cruz, Calif.). The experiment was repeated 3 times with similar results."}, "caspase-3 [3]": {"test_system": "caspase-3", "test": "Caspase-3 processing (Western blot)", "type": "cell-based, rat", "conditions": "BSp73AS", "description": "as §1"}}, "data": [{"smiles": "O=c1c(-c2ccc(O)cc2)coc2cc(O)cc(O)c12", "note": "[genistein]", "values": [{"measurement": "serum-induced Akt/PKB phosphorylation/activation", "setting": "Akt/PKB", "value": "attenuated serum-induced Akt phosphorylation/activation"}, {"measurement": "apoptosis (annexin staining)", "setting": "[1]", "value": "causes significant apoptosis"}]}, {"smiles": "O=c1c(O)c(-c2ccc(O)c(O)c2)oc2cc(O)cc(O)c12", "note": "[quercetin]", "values": [{"measurement": "lowest concentration with effect on caspase-3 conversion", "setting": "caspase-3 [2]; Mia PACA-2, 72 hours (FIG. 7A)", "value": 20, "unit": "µM"}, {"measurement": "conversion of caspase-3 from inactive to active form", "setting": "caspase-3 [2]; Mia PACA-2, 72 hours, 0-50 μM (FIG. 7A)", "value": "convert caspase-3 from its inactive form (32 kDa doublet) to its active form (17 kDa)"}]}, {"smiles": "Oc1ccc(/C=C/c2cc(O)cc(O)c2)cc1", "note": "[trans-resveratrol]", "values": [{"measurement": "lowest concentration with effect on caspase-3 conversion", "setting": "caspase-3 [3]; 24 hours (FIG. 6A)", "value": 20, "unit": "µM"}, {"measurement": "conversion of caspase-3 from inactive to active form", "setting": "caspase-3 [3]; 24 hours, no serum, 0-50 μM (FIG. 6A)", "value": "convert caspase-3 from its inactive form (32 kDa doublet) to its active form (17 kDa)"}]}]}
